Measurements as given in ChEMBL document CHEMBL3352376, “Amine substitution of quinazolinones leads to selective nanomolar AChE inhibitors with 'inverted' binding mode” (Bioorg Med Chem, 2014).
Several values for one entry are separate records, joined by “and”; a condition that tells them apart may be missing. Equal entries are not always repeated. Activity calls are given as the source filed them. No cut-off for these calls is given here.

Experiments:
[1] = biological target: Cholinesterase (Equus caballus, UniProt P81908)
Chain of Cholinesterase (P81908 whole entry): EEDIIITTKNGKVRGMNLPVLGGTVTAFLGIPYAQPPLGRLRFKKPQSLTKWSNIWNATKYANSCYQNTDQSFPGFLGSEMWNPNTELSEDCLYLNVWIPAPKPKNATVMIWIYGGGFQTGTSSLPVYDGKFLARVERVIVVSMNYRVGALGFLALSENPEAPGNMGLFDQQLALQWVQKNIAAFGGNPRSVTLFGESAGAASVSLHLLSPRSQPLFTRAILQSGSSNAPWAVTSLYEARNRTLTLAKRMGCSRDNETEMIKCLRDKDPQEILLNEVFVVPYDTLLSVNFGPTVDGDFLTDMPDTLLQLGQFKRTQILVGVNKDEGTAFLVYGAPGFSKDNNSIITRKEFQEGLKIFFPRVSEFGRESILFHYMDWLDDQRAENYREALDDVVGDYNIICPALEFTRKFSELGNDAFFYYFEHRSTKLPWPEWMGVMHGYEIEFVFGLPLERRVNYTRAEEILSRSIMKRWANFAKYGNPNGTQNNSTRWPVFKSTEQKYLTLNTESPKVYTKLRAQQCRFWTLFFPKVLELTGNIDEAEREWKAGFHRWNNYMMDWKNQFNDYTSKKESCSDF

[2] = biological target: T1, Acetylcholinesterase (Homo sapiens, UniProt P22303)
T1 sequence (P22303 whole entry): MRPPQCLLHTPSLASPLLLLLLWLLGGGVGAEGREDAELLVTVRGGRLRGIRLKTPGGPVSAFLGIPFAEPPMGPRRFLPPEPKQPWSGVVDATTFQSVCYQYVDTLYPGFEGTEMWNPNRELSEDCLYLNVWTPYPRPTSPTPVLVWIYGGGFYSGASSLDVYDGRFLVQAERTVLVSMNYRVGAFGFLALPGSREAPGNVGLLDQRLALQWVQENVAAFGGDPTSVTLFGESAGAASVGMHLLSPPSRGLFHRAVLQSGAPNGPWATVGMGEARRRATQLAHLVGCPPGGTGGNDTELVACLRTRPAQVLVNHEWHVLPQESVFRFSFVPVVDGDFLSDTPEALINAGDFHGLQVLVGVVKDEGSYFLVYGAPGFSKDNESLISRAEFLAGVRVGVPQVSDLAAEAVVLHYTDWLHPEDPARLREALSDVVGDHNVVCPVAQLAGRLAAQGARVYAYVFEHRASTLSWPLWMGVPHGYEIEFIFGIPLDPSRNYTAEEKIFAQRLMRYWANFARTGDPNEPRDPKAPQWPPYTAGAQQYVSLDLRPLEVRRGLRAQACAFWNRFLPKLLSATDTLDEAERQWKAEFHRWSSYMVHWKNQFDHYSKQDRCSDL

[3] = biological target: Acetylcholinesterase (Electrophorus electricus, UniProt O42275)
Chain of Acetylcholinesterase (Electrophorus electricus, UniProt O42275) (O42275 whole entry): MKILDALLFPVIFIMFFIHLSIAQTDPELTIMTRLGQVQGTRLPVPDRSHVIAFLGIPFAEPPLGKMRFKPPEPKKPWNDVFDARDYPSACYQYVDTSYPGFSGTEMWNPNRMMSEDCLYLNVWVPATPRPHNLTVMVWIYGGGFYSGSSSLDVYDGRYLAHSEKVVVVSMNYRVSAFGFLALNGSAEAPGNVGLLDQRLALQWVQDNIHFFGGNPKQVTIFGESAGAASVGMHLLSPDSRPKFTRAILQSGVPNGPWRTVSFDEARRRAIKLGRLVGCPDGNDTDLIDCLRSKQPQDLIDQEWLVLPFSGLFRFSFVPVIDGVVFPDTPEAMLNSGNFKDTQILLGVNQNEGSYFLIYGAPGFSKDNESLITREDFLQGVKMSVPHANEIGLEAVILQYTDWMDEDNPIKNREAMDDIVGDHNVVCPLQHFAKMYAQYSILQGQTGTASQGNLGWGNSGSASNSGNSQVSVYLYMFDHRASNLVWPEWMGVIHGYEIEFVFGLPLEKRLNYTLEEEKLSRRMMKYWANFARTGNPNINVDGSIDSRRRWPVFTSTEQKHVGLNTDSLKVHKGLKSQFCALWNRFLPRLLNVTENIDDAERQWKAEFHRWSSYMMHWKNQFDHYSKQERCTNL

[4] = biological target: Histamine H3 receptor (Homo sapiens, UniProt Q9Y5N1); assay: Inhibition of human H3 receptor
Chain of Histamine H3 receptor (Q9Y5N1 whole entry): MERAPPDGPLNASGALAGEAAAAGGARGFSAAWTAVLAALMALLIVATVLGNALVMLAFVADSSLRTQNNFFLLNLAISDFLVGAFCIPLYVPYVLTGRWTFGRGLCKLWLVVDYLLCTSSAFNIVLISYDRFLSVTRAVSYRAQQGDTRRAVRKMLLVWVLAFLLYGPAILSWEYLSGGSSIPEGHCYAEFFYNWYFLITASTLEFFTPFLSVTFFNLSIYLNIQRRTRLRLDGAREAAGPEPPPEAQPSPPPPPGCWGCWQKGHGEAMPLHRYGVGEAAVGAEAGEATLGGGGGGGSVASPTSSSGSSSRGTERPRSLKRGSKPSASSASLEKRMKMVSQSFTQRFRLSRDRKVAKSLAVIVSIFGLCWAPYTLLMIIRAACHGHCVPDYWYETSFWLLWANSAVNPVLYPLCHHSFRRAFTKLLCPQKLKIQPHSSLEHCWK

[5] = biological target: Acetylcholinesterase (Electrophorus electricus) (UniProt O42275); assay: Inhibition of electric eel AChE at 50 uM
Chain of Acetylcholinesterase (Electrophorus electricus) (O42275 24-633 limits assumed): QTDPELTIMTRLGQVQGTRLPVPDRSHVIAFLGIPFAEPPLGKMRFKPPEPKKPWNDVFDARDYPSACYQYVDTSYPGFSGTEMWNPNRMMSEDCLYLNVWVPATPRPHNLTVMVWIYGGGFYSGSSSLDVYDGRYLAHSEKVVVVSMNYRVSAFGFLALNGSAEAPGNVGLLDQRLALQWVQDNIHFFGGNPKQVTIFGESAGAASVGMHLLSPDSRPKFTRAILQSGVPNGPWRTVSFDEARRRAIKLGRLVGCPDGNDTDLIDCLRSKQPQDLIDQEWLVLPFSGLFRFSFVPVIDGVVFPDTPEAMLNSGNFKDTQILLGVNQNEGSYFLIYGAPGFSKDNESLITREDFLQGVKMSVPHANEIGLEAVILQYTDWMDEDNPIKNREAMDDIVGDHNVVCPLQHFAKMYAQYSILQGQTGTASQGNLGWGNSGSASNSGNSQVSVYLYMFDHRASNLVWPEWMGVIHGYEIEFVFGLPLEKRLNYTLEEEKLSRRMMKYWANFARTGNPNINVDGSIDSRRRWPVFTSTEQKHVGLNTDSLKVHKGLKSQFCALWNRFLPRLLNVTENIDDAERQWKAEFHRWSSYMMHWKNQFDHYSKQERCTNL

[6] = biological target: Cholinesterase (Equus caballus) (UniProt P81908); assay: Inhibition of equine serum BChE at 50 uM
Chain of Cholinesterase (Equus caballus) (P81908 whole entry): as the sequence (P81908 whole entry) above

[7] = biological target: T1, Acetylcholinesterase; assay: Inhibition of human AChE at 100 uM

Row | SMILES | IC50 [1] | IC50 [2] | IC50 [3] [nM] | further results
1 | CCN(CC)CCCOc1ccc2nc3n(c(=O)c2c1)CCCc1ccccc1-3 | 5100 nM | 4200 nM | 72.1 | 
2 | O=c1c2cc(OCCCN3CCCC3)ccc2nc2n1Cc1ccccc1-2 | 2400 nM |  | 16.2 | 
3 | O=c1c2cc(OCCCn3ccnc3)ccc2nc2n1CCC2 | 14600 nM |  | 1900 | 
4 | CCN(CC)CCCOc1ccc2nc3n(c(=O)c2c1)CCc1ccccc1-3 | 2160 nM | 669 nM | 47.5 | 
5 | c1cc2c(cc1OCCCN1CCCCC1)CN1CCCC1=N2 |  | 33.9 nM | 66.5 | Ki [4]: 76.2 nM
6 | O=c1c2cc(OCCCn3ccnc3)ccc2nc2n1CCCc1ccccc1-2 | 52000 nM | 56500 nM | 10300 | 
7 | O=c1c2cc(OCCCN3CCc4ccccc4C3)ccc2nc2n1CCCc1ccccc1-2 | 1840 nM |  | 1190 | 
8 | O=c1c2cc(OCCCn3ccnc3)ccc2nc2n1CCc1ccccc1-2 | 8680 nM |  | 2440 | 
9 | O=c1c2cc(OCCCN3CCc4ccccc4C3)ccc2nc2n1Cc1ccccc1-2 | 1730 nM |  | 227 | 
10 | O=c1c2cc(OCCCN3CCCC3)ccc2nc2n1CCCCC2 | 12200 nM |  | 295 | 
11 | O=c1c2cc(OCCCN3CCCCCC3)ccc2nc2n1CCc1ccccc1-2 | 584 nM |  | 13 | 
12 | O=c1c2cc(OCCCN3CCCCC3)ccc2nc2n1CCCCC2 | 12700 nM | 820 nM | 43 | 
13 | O=c1c2cc(OCCCN3CCCCC3)ccc2nc2n1Cc1ccccc1-2 |  | 143 nM and 142 nM | 6.9 | 
14 | CCN(CC)CCCOc1ccc2nc3n(c(=O)c2c1)CCCC3 | 9140 nM | 1500 nM | 43 | 
15 | CCN(CC)CCCOc1ccc2nc3n(c(=O)c2c1)CCC3 | 829 nM | 1200 nM | 101 | 
16 | O=c1c2cc(OCCCC3CCCCC3)ccc2nc2n1Cc1ccccc1-2 |  |  |  | inhibition [5]: 34%; inhibition [6]: inactive; inhibition [7]: 35%
17 | O=c1c2cc(OCCCN3CCCCCC3)ccc2nc2n1CCCC2 | 1770 nM and 2670 nM |  | 58.5 | 
18 | O=c1c2cc(OCCCN3CCCCC3)ccc2nc2n1CCCC2 | 6550 nM | 225 nM | 33.3 | 
19 | O=c1c2cc(OCCCn3ccnc3)ccc2nc2n1Cc1ccccc1-2 | 9110 nM |  | 454 | 
20 | O=c1c2cc(OCCCN3CCc4ccccc4C3)ccc2nc2n1CCCCC2 | 3030 nM |  | 653 | 

Row | SMILES | IC50 [1] | IC50 [2] | IC50 [3] [nM] | further results
21 | O=c1c2cc(OCCCN3CCCCCC3)ccc2nc2n1CCC2 | 5220 nM |  | 50.2 | 
22 | O=c1c2cc(OCCCN3CCCC3)ccc2nc2n1CCC2 | 10600 nM |  | 50 | 
23 | O=c1c2cc(OCCCN3CCCC3)ccc2nc2n1CCCC2 | 16100 nM |  | 210 | 
24 | O=c1c2cc(OCCCn3ccnc3)ccc2nc2n1CCCCC2 | 59800 nM |  | 3950 | 
25 | O=c1c2cc(OCCCN3CCCC3)ccc2nc2n1CCc1ccccc1-2 |  |  | 91.1 | 
26 | O=c1c2cc(OCCCN3CCCC3)ccc2nc2n1CCCc1ccccc1-2 | 3610 nM |  | 529 | 
27 | O=c1c2cc(OCCCn3ccnc3)ccc2nc2n1CCCC2 | 50000 nM and 59000 nM |  | 4240 | 
28 | O=c1c2cc(OCCCN3CCCCC3)ccc2nc2n1CCC2 | 122000 nM | 1100 nM | 69.2 | 
29 | CCN(CC)CCCOc1ccc2nc3n(c(=O)c2c1)CCCCC3 | 10800 nM | 12100 nM | 50.6 | 
30 | O=c1c2cc(OCCCN3CCc4ccccc4C3)ccc2nc2n1CCCC2 | 5490 nM |  | 723 | 
31 | O=c1c2cc(OCCCN3CCCCCC3)ccc2nc2n1Cc1ccccc1-2 | 1870 nM |  | 5 | 
32 | O=c1c2cc(OCCCN3CCCCCC3)ccc2nc2n1CCCCC2 | 1800 nM |  | 39.2 | 
33 | O=c1c2cc(OCCCN3CCc4ccccc4C3)ccc2nc2n1CCC2 | 776 nM |  | 868 | 
34 | O=c1c2cc(OCCCN3CCCCC3)ccc2nc2n1CCCc1ccccc1-2 | 2670 nM | 535 nM | 57.1 | 
35 | O=c1c2cc(OCCCN3CCCCCC3)ccc2nc2n1CCCc1ccccc1-2 | 865 nM |  | 53.4 | 
36 | O=c1c2cc(OCCCCCCCCCN3CCCCC3)ccc2nc2n1CCC2 | 8600 nM |  | 390 | 
37 | O=c1c2cc(OCCCN3CCCCC3)ccc2nc2n1CCc1ccccc1-2 | 955 nM | 217 nM and 216 nM | 5.5 | 
38 | O=c1c2cc(OCCCN3CCc4ccccc4C3)ccc2nc2n1CCc1ccccc1-2 | 1830 nM |  | 625 | 
39 | CCN(CC)CCCOc1ccc2nc3n(c(=O)c2c1)Cc1ccccc1-3 | 1880 nM | 200 nM | 11 | 
